A short description of data set [1]: Plasma aminotransferases (AST, ALT) of treated rats. It is filed as in vivo, Sprague-Dawley rats. The procedure: All animals were killed by exsanguination via the abdominal aorta while under carbon dioxide (CO2/O2, 70%/30%) anesthesia. Heparin was used as the anticoagulant. Plasma was separated from the blood by centrifugation (1750 ×g) at 4°C for 20 min. The liver from each animal was excised, weighed, and stored at −80°C. This research has received ethical approval from the institutional animal ethics committee of China Medical University, Taichung, Taiwan.
Plasma glucose was determined by use of enzymatic kits purchased from Audit Diagnostics Co. (Cork, Ireland). Plasma aspartate aminotransferase (AST) and alanine aminotransferase (ALT) activities were measured by using commercial kits purchased from Randox Laboratories (Antrim, UK).

Data set [2] relates to CYP1A2. The experiment in a line: Methoxyresorufin O-demethylation in liver microsomes of treated rats. It is filed as in vivo. The settings on record: rat liver microsomes; oral 2 g/kg APE or 50 mg/kg AND daily for 5 days. Here is the method: (§1) Liver was homogenized (1 : 4, w/v) in an ice-cold potassium phosphate buffer (pH 7.4) containing 7.4 mM K2HPO4, 2.6 mM KH2PO4, 1.15% KCl, and 1 mM phenylmethylsulfonyl fluoride (PMSF). Tissue homogenates were centrifuged at 10,000 ×g for 30 min at 4°C. The resulting supernatant was then centrifuged at 105,000 ×g for 1 h at 4°C. The microsomes thus obtained were washed several times to get rid of possible tolbutamide contamination and this can avoid tolbutamide interference of CYP activity, and the microsomes were then suspended in potassium phosphate buffer (pH 7.7) containing 7.5 mM K2HPO4, 14.5 mM KH2PO4, and 1 mM EDTA. […] Metabolites of each CYP enzyme reaction were determined by LC/MS as reported previously. The contents of total CYP and cytochrome b5 were quantified by the method of Omura and Sato [29]. Enzyme activity is expressed as picomoles of metabolite formed per minute per milligram of protein. The NADPH-CYP reductase activity was measured as described by Phillips and Langdon with the use of cytochrome c as the substrate. The microsomal protein concentration was determined by using a Coomassie Plus protein assay kit (Pierce, Rockford, IL, USA).
In general terms: Microsomes from liver hold many membrane-bound enzymes, among them those of drug oxidation.

In data set [3] the test system is CYP4A. Put plainly: Lauric acid 12-hydroxylation in liver microsomes of treated rats. It is filed as in vivo. The settings on record: rat liver microsomes; oral 2 g/kg APE or 50 mg/kg AND daily for 5 days. Here is the method:
as §1

The subject of data set [4] is CYP2C6/11. The experiment in a line: Hepatic CYP2C6 and CYP2C11 protein expression in high-fat diet-induced obese mice. It is filed as in vivo, C57BL/6 mice. The settings on record: 2 g/kg APE or 50 mg/kg AND daily for 5 days. Here is the method: Eleven-month-old high-fat diet-fed (45% of energy from fat; Research Diet Inc., New Brunswick, NJ) C57BL/6 mice were obtained from the National Health Research Institute (Miaoli, Taiwan). Control mice were orally administered 0.5% methyl cellulose (10 mL/kg). […] After the 5th daily dose, the mice were deprived of food overnight. On day 6, a 20 mg/kg oral dose of tolbutamide, as a solution in Cremophor EL/ethanol/water (30/10/60, v/v/v), was administered to each mouse. Thirty minutes later, a 1 g/kg dose of glucose, as a solution in water, was administered orally according to the method described by Zong et al.. Serial blood samples were collected up to 8 h after the glucose dose from each mouse. The animals were then killed by exsanguination and the livers collected.
Aliquots of microsomal protein (10 μg) were electrophoresed in an SDS-polyacrylamide gel, and proteins were then transferred to polyvinylidene fluoride membranes. After blocking, membranes were hybridized with antibodies to CYP1A1, CYP1A2, CYP2C6, CYP2C11, CYP2D1, CYP2E1, CYP3A1, and CYP3A2.

[5] abbreviates: rats, oral 2 g/kg APE or 50 mg/kg AND daily for 5 days, mean ± SD, n = 5.

Marks after values point to notes of the source that are not given here.

For the molecule `C=C1CC[C@@H]2[C@](C)(CO)[C@H](O)CC[C@@]2(C)[C@@H]1C/C=C1/C(=O)OC[C@H]1O` [andrographolide, Andrographolide], the “Effect on rat liver function” value in data set [1] (2 g/kg APE and 50 mg/kg AND, plasma AST and ALT) was “no deleterious effect”. Further, in data set [1] (setting [5]), the “Plasma aminotransferases, ALT” value came out at 15.8 ± 8.2 U/L and the “Plasma aminotransferases, AST” value is reported as 27.7 ± 4.4 U/L. The “Methoxyresorufin O-demethylase (1A2)” value in data set [2] was 25.6 ± 7.2^b pmol/min/mg protein. Besides, the “Lauric acid 12-hydroxylase (4A)” value in data set [3] came to 214 ± 88 pmol/min/mg protein. For the same molecule, the “Hepatic expression of CYP2C6/11” value in data set [4] is “induced”.
